Data reported in ChEMBL document CHEMBL3217615, “Novel 3,5-bis(arylidiene)-4-piperidone based monocarbonyl analogs of curcumin: anticancer activity evaluation and mode of action study” (2014).

How the values were obtained:
Type in all cases: functional
[1] = test system: COLO 205; assay: Induction of apoptosis in human COLO205 cells assessed as caspase 9 activation at 10 uM by FLICA
[2] = test system: RPMI-8226; assay: Growth inhibition of human RPMI8226 cells assessed as cell growth at 10^-6 M after 48 hrs by sulforhodamine B assay; details: RPMI-8226, 48 h, read-out: Activity
[3] = test system: SF-268; assay: Growth inhibition of human SF268 cells assessed as cell growth at 10^-6 M after 48 hrs by sulforhodamine B assay; details: SF-268, 48 h, read-out: Activity
[4] = test system: KM12; assay: Growth inhibition of human KM12 cells assessed as cell growth at 10^-6 M after 48 hrs by sulforhodamine B assay; details: KM12, 48 h, read-out: Activity
[5] = Growth inhibition of human OVCAR8 cells after 48 hrs by sulforhodamine B assay; details: OVCAR-8, 48 h; for CC50: read-out: LC50 (the source's name)
[6] = test system: MCF7; assay: Growth inhibition of human MCF7 cells after 48 hrs by sulforhodamine B assay; details: MCF7, 48 h; for CC50: read-out: LC50 (the source's name)
[7] = test system: SK-MEL-5; assay: Growth inhibition of human SK-MEL-5 cells assessed as cell growth at 10^-4 M after 48 hrs by sulforhodamine B assay; details: SK-MEL-5, 48 h, read-out: Activity
[8] = test system: HT-29; assay: Growth inhibition of human HT-29 cells assessed as cell growth at 10^-8 M after 48 hrs by sulforhodamine B assay; details: HT-29, 48 h; for growth at 0.01 µM: read-out: Activity; for TGI: read-out: pTGI (converted)
[9] = Growth inhibition of human OVCAR4 cells after 48 hrs by sulforhodamine B assay; details: OVCAR-4, 48 h; for CC50: read-out: LC50 (the source's name)
[10] = test system: NCI-H322M; assay: Growth inhibition of human NCI-H322M cells assessed as cell growth at 10^-8 M after 48 hrs by sulforhodamine B assay; details: for growth at 0.01 µM: read-out: Activity; for TGI: read-out: pTGI (converted)
[11] = test system: TK-10; assay: Growth inhibition of human TK10 cells assessed as cell growth at 10^-4 M after 48 hrs by sulforhodamine B assay; details: TK-10, 48 h, read-out: Activity
[12] = test system: HOP-62; assay: Growth inhibition of human HOP62 cells assessed as cell growth at 10^-4 M after 48 hrs by sulforhodamine B assay; details: HOP-62, 48 h, read-out: Activity
[13] = test system: TK-10; assay: Growth inhibition of human TK10 cells after 48 hrs by sulforhodamine B assay; details: TK-10, 48 h
[14] = test system: TK-10; assay: Growth inhibition of human TK10 cells assessed as cell growth at 10^-8 M after 48 hrs by sulforhodamine B assay; details: TK-10, 48 h
[15] = Growth inhibition of human Hs 578T cells assessed as cell growth at 10^-6 M after 48 hrs by sulforhodamine B assay; details: read-out: Activity
[16] = Growth inhibition of human Hs 578T cells after 48 hrs by sulforhodamine B assay
[17] = Growth inhibition of human Hs 578T cells assessed as cell growth at 10^-7 M after 48 hrs by sulforhodamine B assay; details: read-out: Activity
[18] = test system: TK-10; assay: Growth inhibition of human TK10 cells assessed as cell growth at 10^-7 M after 48 hrs by sulforhodamine B assay; details: TK-10, 48 h, read-out: Activity
[19] = test system: PC-3; assay: Growth inhibition of human PC3 cells assessed as cell growth at 10^-6 M after 48 hrs by sulforhodamine B assay; details: PC-3, 48 h, read-out: Activity
[20] = Growth inhibition of human Hs 578T cells assessed as cell growth at 10^-4 M after 48 hrs by sulforhodamine B assay; details: read-out: Activity
[21] = test system: TK-10; assay: Growth inhibition of human TK10 cells assessed as cell growth at 10^-6 M after 48 hrs by sulforhodamine B assay; details: TK-10, 48 h, read-out: Activity
[22] = Growth inhibition of human Hs 578T cells assessed as cell growth at 10^-8 M after 48 hrs by sulforhodamine B assay
[23] = test system: CCRF-CEM; assay: Growth inhibition of human CCRF-CEM cells assessed as cell growth at 10^-6 M after 48 hrs by sulforhodamine B assay; details: read-out: Activity
[24] = read-out: LC50 (the source's name)

**Q.** What does the source list for `O=C1/C(=C/c2ccc(Cl)cc2Cl)CN(S(=O)(=O)c2ccccc2)C/C1=C\c1ccc(Cl)cc1Cl`?
**A.** Activity [1]: 22%; growth at 1 µM [2]: -25%; growth at 1 µM [3]: 24%; growth at 1 µM [4]: -30%; GI50 [5]: 0.286 µM; TGI [5]: 0.958 µM; CC50 [5]: > 100 µM; GI50 [6]: 0.305 µM; TGI [6]: 100 µM; CC50 [6]: > 100 µM; growth at 100 µM [7]: 60%; GI50 [8]: 0.295 µM; LC50 [8]: > 100 µM; growth at 0.01 µM [8]: 102%; TGI [8]: 0.851 µM; GI50 [9]: 0.279 µM; TGI [9]: > 100 µM; CC50 [9]: > 100 µM; GI50 [10]: 0.676 µM; LC50 [10]: > 100 µM; growth at 0.01 µM [10]: 107%; TGI [10]: 3.55 µM

**Q.** For `Cc1ccc(S(=O)(=O)N2C/C(=C\c3cc(F)cc(F)c3)C(=O)/C(=C/c3cc(F)cc(F)c3)C2)cc1`, which Activity [1] is on record?
**A.** 40.5%

**Q.** What about the growth at 1 µM [2] of the same compound?
**A.** -16%

**Q.** And the growth at 100 µM [11]?
**A.** -85%

**Q.** What about the growth at 1 µM [3] of the same compound?
**A.** 21%

**Q.** What about the GI50 [5] of the same compound?
**A.** 0.301 µM

**Q.** What about the TGI [5] of the same compound?
**A.** 1.77 µM

**Q.** What about the CC50 [5] of the same compound?
**A.** 16.3 µM

**Q.** What about the growth at 100 µM [12] of the same compound?
**A.** -93%

**Q.** What about the GI50 [6] of the same compound?
**A.** 0.175 µM

**Q.** What about the TGI [6] of the same compound?
**A.** 1.45 µM

**Q.** What about the CC50 [6] of the same compound?
**A.** 6.88 µM

**Q.** And the growth at 100 µM [7]?
**A.** -97%

**Q.** What about the GI50 [13] of the same compound?
**A.** 1.03 µM

**Q.** And the TGI [13]?
**A.** 2.96 µM

**Q.** And the CC50 [13, 24]?
**A.** 8.46 µM

**Q.** What about the GI50 [14] of the same compound?
**A.** 1.02 µM

**Q.** And the LC50 (50% lethal concentration) [14]?
**A.** 8.51 µM

**Q.** What about the growth at 0.01 µM ([14]; read-out: Activity) of the same compound?
**A.** 103%

**Q.** What about the TGI ([14]; read-out: pTGI (converted)) of the same compound?
**A.** 2.95 µM

**Q.** What about the GI50 [8] of the same compound?
**A.** 0.229 µM

**Q.** What about the LC50 [8] of the same compound?
**A.** 3.16 µM

**Q.** What about the growth at 0.01 µM [8] of the same compound?
**A.** 105%

**Q.** What about the TGI [8] of the same compound?
**A.** 0.631 µM

**Q.** What about the growth at 1 µM [15] of the same compound?
**A.** 22%

**Q.** And the GI50 [16]?
**A.** 0.399 µM

**Q.** And the TGI [16]?
**A.** 18.6 µM

**Q.** And the CC50 [16, 24]?
**A.** > 100 µM

**Q.** And the growth at 0.1 µM [17]?
**A.** 93%

**Q.** And the growth at 0.1 µM [18]?
**A.** 106%

**Q.** What about the growth at 1 µM [19] of the same compound?
**A.** -9%

**Q.** And the GI50 [9]?
**A.** 0.441 µM

**Q.** And the TGI [9]?
**A.** 5.23 µM

**Q.** And the CC50 [9]?
**A.** 36.3 µM

**Q.** And the growth at 100 µM [20]?
**A.** -23%

**Q.** And the growth at 1 µM [21]?
**A.** 52%

**Q.** And the GI50 [10]?
**A.** 4.68 µM

**Q.** What about the LC50 [10] of the same compound?
**A.** > 100 µM

**Q.** What about the growth at 0.01 µM [10] of the same compound?
**A.** 102%

**Q.** And the TGI [10]?
**A.** 22.9 µM

**Q.** And the GI50 [22]?
**A.** 0.398 µM

**Q.** What about the LC50 [22] of the same compound?
**A.** > 100 µM

**Q.** And the growth at 0.01 µM ([22]; read-out: Activity)?
**A.** 92%

**Q.** And the TGI ([22]; read-out: pTGI (converted))?
**A.** 18.6 µM

**Q.** What about the growth at 1 µM [23] of the same compound?
**A.** -1%
